{"source": "patent EP2252246B1", "about": "“CHEMOPROTECTIVE METHODS AND COMPOSITIONS” (BIONUMERIK PHARMACEUTICALS, INC., priority 2008, dated 2009)", "key": {"[1]": {"system": "paclitaxel-induced neuropathy model", "assay": "Paclitaxel-induced thermoparesthesia in the paclitaxel-induced neuropathy model", "type": "in vivo, rats", "settings": "for maximum inhibition rate (thermoparesthesia): paclitaxel 6 mg/kg i.v. 5-times every other day"}, "tubulin": {"system": "tubulin", "settings": "paclitaxel 6 µM; cited from earlier work"}, "[2]": {"settings": "human, in vivo", "method": "• Figure 1 illustrates a comparison of the number of hypersensitivity Adverse Events between groups of patients in whom 2,2'-dithio-bis-ethane sulfonate or a placebo was infused over (1) 30 minutes, (2) 30 and 45 minutes, or (3) 45 minutes. […] Drug concentrations of disodium 2,2'-dithio-bis-ethane sulfonate administered were 200 mg/mL infused over 30 minutes, 200 mg/mL and 100 mg/mL infused over 30 & 45 minutes, respectively, and 100 mg/mL infused over 45 minutes.\nThe patients' body surface area (BSA) was determined based on the use of standard methods that are customarily used for such purposes, including standardized nomograms and calculations that utilize the individual height and weight data from each patient.\nFigure 1 illustrates a comparison of the number of hypersensitivity Adverse Events between groups of patients in whom 2,2'-dithio-bis-ethane sulfonate or a placebo was infused over (1) 30 minutes, (2) 30 minutes and 45 minutes, or (3) 45 minutes. In addition, the total number of hypersensitivity Adverse Events, the mean time to the first hypersensitivity Adverse Event, and a variety of the types of hypersensitivity Adverse Events were also shown.\nDrug concentrations administered were about 200 mg/mL infused over about 30 minutes, about 200 mg/mL and about 100 mg/mL infused over about 30 & about 45 minutes, respectively, and about 100 mg/mL infused over about 45 minutes."}, "[3]": {"system": "patients with advanced non-small cell lung carcinoma (NSCLC)", "assay": "Japan Phase III Clinical Trial (paclitaxel + cisplatin, placebo-controlled; PNQ primary evaluation)", "type": "in vivo, human", "settings": "paclitaxel/Tavocept/cisplatin vs paclitaxel/saline placebo/cisplatin, NSCLC patients (Figure 5)", "description": "The Japan Phase III Clinical Trial was conducted as a double-blind study because peripheral neuropathy is diagnosed based on subjective symptoms evaluated through clinical interviews, lab tests, and the like. Accordingly, evaluations by both physicians and patients are highly important. […] A placebo was used as control since there is no established therapy or drug for preventing peripheral neuropathy. Because the severity of peripheral neuropathy is evaluated based on patients' reports (i.e., subjective symptoms), the Peripheral Neuropathy Questionnaire (PNQ^© was used in primary evaluation. The CIPN-20 questionnaire and the National Cancer Institute - Common Toxicity Criteria (NCI-CTC) were used in secondary evaluation. The incidence and severity of adverse reactions, time to their onset, etc. and the like, were compared between patients treated with Tavocept™ and those given a placebo using the aforementioned methods.\nThe Primary Endpoint of the Japan Phase III Clinical Trial described in the present invention was specifically designed to test the hypothesis of whether chemotherapy-induced intermittent peripheral neuropathy would occur. […] The results illustrated in Figure 3 indicate that intermittent peripheral neuropathy was specifically identified and measured in the Japan Phase III Clinical Trial. […]"}}}
{"smiles": "O=S(=O)([O-])CCSSCCS(=O)(=O)[O-].[Na+].[Na+]", "note": "[Tavocept, disodium 2,2'-dithio-bis-ethane sulfonate]", "values": [{"measurement": "maximum inhibition rate (thermoparesthesia)", "setting": "[1]; 1,000 mg/kg", "result": 41.7, "unit": "%"}, {"measurement": "inhibition rates of thermoparesthesia", "setting": "[1]; 2,000 mg/kg i.v. immediately after paclitaxel 12 mg/kg i.p. once a week for 5 weeks", "result": "19.2-34.1%"}, {"measurement": "maximum inhibition rate (thermoparesthesia)", "setting": "[1]; 2,000 mg/kg", "result": 41.5, "unit": "%"}, {"measurement": "concentration that inhibits tubulin polymerization induced by paclitaxel", "setting": "tubulin", "result": 6, "unit": "mM"}, {"measurement": "reduction in hypersensitivity Adverse Events in the treatment population", "setting": "[2]", "result": "≤ 57", "unit": "%"}, {"measurement": "reduction in severe (Grade D or E) intermittent or cumulative peripheral neuropathy", "setting": "[3]", "result": "~50", "unit": "%"}]}
